How the values were obtained:
[1] = tested on: stress ulcers in the stomachs of rats; assay: anti-ulcer activity, stress ulcer (stress and cold); assay type: in vivo, rat (female); details: 10 mg/kg, by esophageal tube
Procedure: (2) Determination of anti-ulcer activity
The technique consists in inducing ulcers in the stomachs of rats by stress (stress and cold). The technique used is described by E. C. SENAY and R. J. LEVINE, Proc. Soc. Exp. Biol., 124, 1221 (1967).
Female rats of 150 g were used (5 animals per lot) which have fasted for 48 hours with water ad libitum and glucose solution for 8 hours. The animals were given the compound being tested, or 0.5% solution of carboxymethylcellulose for the control animals, by esophageal tube. Two hours later the animals were bundled in a jacket of netting. Their paws were tied and the entire unit was placed in a refrigerator at 8° C. for two hours. The rats were released and killed with ether.
Their stomachs were opened along the greater curvature and examined with a binocular magnifier. The seriousness of the lesions was rated from 0 to 3 for each stomach.
For each lot of the rats, the average intensity of the ulcerations was determined. The degree of ulceration for the test animals was determined and compared with the control animals for each lot.

gastric secretions = assay: anti-gastric secretion activity (Shay, pylorus-ligated rats), total acidity of gastric juice; assay type: in vivo, rat (male); details: 10 mg/kg, intraduodenally, 3 hours
Procedure: (1) Determination of the anti-gastric secretion activity
The technique used is described by H. SHAY et al. in Gastroenterology, 5, 43, (1945).
Male rats were used weighing about 200 g (10 animals per lot) which had been without food for 48 hours but were allowed an 8% glucose solution ad libitum. After the rats were slightly anesthetized with ether, the pylorus of each was ligated. After the end of the operation, the compound to be tested was administered intraduodenally in different doses, or in the case of the control animals, a 0.5% solution of carboxymethylcellulose was administered intraduodenally, after which the abdominal incision was sutured.
Three hours later, the animals were sacrificed and their stomachs removed, after ligating the esophagus. The gastric juice was removed and centrifuged. The volume of gastric juice was then determined and the total acidity was established by titrating a 100 μl sample of gastric juice to a pH of 7 by means of 1/10 N aqueous sodium hydroxide solution.
The percentages of variation in total acidity between gastric secretions of the test and control animals were calculated, with the results appearing below.

acute toxicity (LD50) = details: mouse, in vivo, po; orally in mice
Procedure: (3) Determination of acute toxicity
The LD50 was evaluated after administration of the products orally in mice.

Compound	Anti-ulcer activity: Ulceration (% variation as compared with the controls) [1]	Anti-secretion activity: Acid conc. (% variation as compared with the controls) (gastric secretions)	LD50 (acute toxicity (LD50))
COc1cc(C(=O)/C=C/C(=O)O)ccc1O [Example 1, (E) 4-(3-methoxy-4-hydroxyphenyl)-4-oxobuten-2-oic acid]	-89%	-90%	1000 mg/kg
O=C(O)/C=C/C(=O)c1ccc2c(c1)OCCO2 [Example 2, (E) 4-(2,3-dihydrobenzodioxine-6-yl)-4-oxobuten-2-oic acid]	-33%	-41%	750 mg/kg

Source: patent publication US4500731A, “Derivatives of 4-phenyl-4-oxobuten-2-oic acid, pharmaceutical compositions containing them, and therapeutic uses for them” (Roussel Uclaf, priority 1981, dated 1985)
